The source of these data is patent publication US20260266848A1, “COMPOSITIONS AND METHODS FOR DIAGNOSING AND TREATING DYSTONIA” (Duke University, priority 2023, published 2026).

The data set deals with DYT1 patient plasma. Put plainly: Whole plasma metabolomics (Biocrates MxP Quant 500 Kit), DYT1 vs Healthy Controls. The note with it: DYT1-Dystonia vs Healthy Control.
From the text: Duke Proteomics and Metabolomics Core Facility (DPMCF) also analyzed metabolites from 41 plasma samples using the Biocrates MxP Quant 500 Kit. Plasma from 14 subjects with DYT1 and 27 Healthy Controls was utilized.
On to `NCCCCC(=O)O` [5-AVA_Aminoacids Related], for which the “-LogP” value amounted to 2.862.
To `N[C@@H](CSSC[C@H](N)C(=O)O)C(=O)O` [Cystine_Aminoacids Related] belongs 2.546; to `CCCCCCCCCCCCCCCCCCCCCCCCCCCC(=O)OC[C@@H](O)COP(=O)([O-])OCC[N+](C)(C)C` [lysoPC a C28:0_Glycerophospholipids], 1.585; to `CCCCCCCCCCCCCCCCCCCCCCCCCC(=O)OC[C@@H](O)COP(=O)([O-])OCC[N+](C)(C)C` [lysoPC a C26:0_Glycerophospholipids], 2.027.
To `N[C@@H](CC(=O)O)C(=O)O` [Asp_Aminoacids] belongs 1.99.
To `Cc1ccc(OS(=O)(=O)O)cc1` [p-Cresol-SO4_Cresols] belongs 1.433.
